From patent publication US20250136559A1, “SMO MODULATOR COMPOUNDS” (OMASS THERAPEUTICS LIMITED, priority 2022, published 2025)

Assays:
Type in all cases: cell-based
[1] = target: T1, mouse SMO^WT (Mus musculus, UniProt P56726); experiment: Mouse assay: Gli1 qPCR in MEF cells stably expressing mouse SMO WT; settings: mSHh-treated, 24 hours; for IC50: Gli1 inhibition by qPCR, read-out: Mouse WT pIC50 (converted); for Mouse WT % Inh: percentage Gli1 inhibition
T1 construct: expressed in transfected cells
Method in brief: (§1)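 MEFs stably expressing the SMO variant pre-treated with compound 1 h, then stimulated with mSHh and incubated 24 h at 37 °C. Gli1 mRNA quantified by one-step TaqMan qPCR with Gusb reference, four replicates per concentration; expressed as % Gli1 inhibition relative to mSHh-treated controls.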

[2] = target: T2, human SMO W535L (Homo sapiens, UniProt Q99835, W535L); experiment: Human assay: Gli1 qPCR in MEF SMO-/- cells BacMam-transduced with hSMO W535L variant; settings: mSHh-treated, 24 hours; for IC50: Gli1 inhibition by qPCR, read-out: Human W535L pIC50 (converted); for Human W535L % Inh: percentage Gli1 inhibition
T2 construct: expressed in transfected cells; host or cells: SMO knock-out mouse embryonic fibroblasts (MEF SMO-/-), BacMam transduction
Description: (§2) Cell culture. All materials were purchased from Sigma-Aldrich, unless otherwise stated. SMO knock-out mouse embryonic fibroblasts (MEF^SMO−/−) were maintained in Dulbecco's modified Eagle's medium (DMEM)/high-glucose medium supplemented with 10% foetal bovine serum (FBS, Invitrogen), 50 U/mL penicillin and 5 mg/mL streptomycin (supplied as a mixture), 0.1 mMMEM Non-Essential Amino Acids (supplied as 100× solution, ThermoFisher) and 1 mM sodium pyruvate at 37° C. in a humidified 95% air/5% CO2 atmosphere.
(§3) BacMam transduction and compound treatment. MEF^SMO−/− cells were transduced with BacMam virus (MOI 1:10 in the presence of 4.2 mM valproic acid) containing either the hSMO WT or desired receptor variant sequence. Transduced cells were seeded at 6000 cells per well in a Poly-D-Lysine coated 384-well plate (Greiner) before the spent culture medium was removed on the following day and replaced with assay medium (OptiMEM (Gibco) supplemented with 50 U/mL penicillin and 5 mg/mL streptomycin (supplied as a mixture), 0.1 mMMEM Non-Essential Amino Acids (supplied as 100× solution, ThermoFisher), 1 mM sodium pyruvate and 10 mM HEPES) containing test compounds at 2.5× final assay concentrations. After 1 hour incubation, cells were treated with assay medium containing mSHh prepared at 2.5× of final assay concentrations specified in the text and incubated for a further 24 hours at 37° C. in a humidified 95% air/5% ° C.2 atmosphere prior to qPCR analysis.
(§4) Cell lysis and one-step qPCR. The Cells-to-CT™ 1-Step TaqMan® Kit was used in conjunction with TaqMan primer-probe assays for the detection of Gill (FAM, Mm00494654_m1) and Gusb (VIC, Mm01197698_m1) genes (all purchased from Life Technologies). Following 24 hours cell treatment, spent medium was removed and cells were washed with PBS before the application of lysis and stop solution as per manufacturer's instructions. The qPCR reactions were run in a 384-well PCR plate using master mix prepared according to manufacturer's instructions and cell lysate samples from treatment wells. Real-time PCR amplification was detected using the Bio-Rad CFX384 Touch PCR system. Four experimental replicates (two cell replicates and two qPCR replicates) were performed for each compound concentration tested. Real-time data were analysed using the CFX Maestro software (Bio-Rad) and obtained expression values were converted to percentage Gill inhibition by normalising to the average Gill expression of mSHh-treated control samples

[3] = target: T3, mouse SMO^W535L (Mus musculus, UniProt P56726, W539L); experiment: Mouse assay: Gli1 qPCR in MEF cells stably expressing mouse SMO W535L; settings: mSHh-treated, 24 hours; for IC50: Gli1 inhibition by qPCR, read-out: Mouse W535L pIC50 (converted); for Mouse W535L % Inh: percentage Gli1 inhibition
T3 construct: expressed in transfected cells
Method in brief: as §1

[4] = target: T4, mouse SMO^D473H (Mus musculus, UniProt P56726, D477H); experiment: Mouse assay: Gli1 qPCR in MEF cells stably expressing mouse SMO D473H; settings: mSHh-treated, 24 hours; for IC50: Gli1 inhibition by qPCR, read-out: Mouse D473H pIC50 (converted); for Mouse D473H % Inh: percentage Gli1 inhibition
T4 construct: expressed in transfected cells
Method in brief: as §1

[5] = target: T5, human SMO D473H (Homo sapiens, UniProt Q99835, D473H); experiment: Human assay: Gli1 qPCR in MEF SMO-/- cells BacMam-transduced with hSMO D473H variant; settings: mSHh-treated, 24 hours; for IC50: Gli1 inhibition by qPCR, read-out: Human D473H pIC50 (converted); for Human D473H % Inh: percentage Gli1 inhibition
T5 construct: expressed in transfected cells; host or cells: SMO knock-out mouse embryonic fibroblasts (MEF SMO-/-), BacMam transduction
Description: Cell culture. All materials were purchased from Sigma-Aldrich, unless otherwise stated.
as §3, with “concentrations.” for “concentrations. After 1 hour incubation, cells were treated with assay medium containing mSHh prepared at 2.5× of final assay concentrations specified in the text and incubated for a further 24 hours at 37° C. in a humidified 95% air/5% ° C.2 atmosphere prior to qPCR analysis.”
as §4

[6] = target: T6, hSMO WT (Homo sapiens, UniProt Q99835); experiment: Human assay: Gli1 qPCR in MEF SMO-/- cells BacMam-transduced with hSMO WT; settings: mSHh-treated, 24 hours; for IC50: Gli1 inhibition by qPCR, read-out: Human WT pIC50 (converted); for Human WT % Inh: percentage Gli1 inhibition
T6 construct: expressed in transfected cells; host or cells: SMO knock-out mouse embryonic fibroblasts (MEF SMO-/-), BacMam transduction
Description: as §2, §3, §4

T4 sequence (P56726 33-793 D477H): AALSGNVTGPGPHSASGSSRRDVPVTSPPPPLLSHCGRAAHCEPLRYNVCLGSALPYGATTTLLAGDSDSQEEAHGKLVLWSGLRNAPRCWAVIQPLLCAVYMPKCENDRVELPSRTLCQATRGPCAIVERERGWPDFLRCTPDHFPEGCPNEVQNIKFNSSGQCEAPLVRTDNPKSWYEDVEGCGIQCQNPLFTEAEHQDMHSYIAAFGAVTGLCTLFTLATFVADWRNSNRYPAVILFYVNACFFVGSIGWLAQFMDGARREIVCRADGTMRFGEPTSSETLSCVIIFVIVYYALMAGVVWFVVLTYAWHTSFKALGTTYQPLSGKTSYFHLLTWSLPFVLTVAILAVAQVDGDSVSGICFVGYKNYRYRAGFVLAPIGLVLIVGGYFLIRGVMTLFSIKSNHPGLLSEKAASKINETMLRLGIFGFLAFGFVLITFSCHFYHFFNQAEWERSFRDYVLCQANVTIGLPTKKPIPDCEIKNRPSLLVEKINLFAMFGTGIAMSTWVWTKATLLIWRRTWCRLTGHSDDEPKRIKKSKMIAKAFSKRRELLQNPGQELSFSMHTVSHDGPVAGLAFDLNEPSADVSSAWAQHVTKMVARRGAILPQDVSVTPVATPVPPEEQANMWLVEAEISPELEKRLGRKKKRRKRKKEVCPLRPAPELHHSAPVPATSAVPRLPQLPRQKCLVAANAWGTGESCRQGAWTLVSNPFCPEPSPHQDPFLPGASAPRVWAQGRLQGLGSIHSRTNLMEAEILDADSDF
T1 sequence (P56726 33-793): as the sequence (P56726 33-793 D477H) above, with H445D counted along it
T6 sequence (Q99835 28-787): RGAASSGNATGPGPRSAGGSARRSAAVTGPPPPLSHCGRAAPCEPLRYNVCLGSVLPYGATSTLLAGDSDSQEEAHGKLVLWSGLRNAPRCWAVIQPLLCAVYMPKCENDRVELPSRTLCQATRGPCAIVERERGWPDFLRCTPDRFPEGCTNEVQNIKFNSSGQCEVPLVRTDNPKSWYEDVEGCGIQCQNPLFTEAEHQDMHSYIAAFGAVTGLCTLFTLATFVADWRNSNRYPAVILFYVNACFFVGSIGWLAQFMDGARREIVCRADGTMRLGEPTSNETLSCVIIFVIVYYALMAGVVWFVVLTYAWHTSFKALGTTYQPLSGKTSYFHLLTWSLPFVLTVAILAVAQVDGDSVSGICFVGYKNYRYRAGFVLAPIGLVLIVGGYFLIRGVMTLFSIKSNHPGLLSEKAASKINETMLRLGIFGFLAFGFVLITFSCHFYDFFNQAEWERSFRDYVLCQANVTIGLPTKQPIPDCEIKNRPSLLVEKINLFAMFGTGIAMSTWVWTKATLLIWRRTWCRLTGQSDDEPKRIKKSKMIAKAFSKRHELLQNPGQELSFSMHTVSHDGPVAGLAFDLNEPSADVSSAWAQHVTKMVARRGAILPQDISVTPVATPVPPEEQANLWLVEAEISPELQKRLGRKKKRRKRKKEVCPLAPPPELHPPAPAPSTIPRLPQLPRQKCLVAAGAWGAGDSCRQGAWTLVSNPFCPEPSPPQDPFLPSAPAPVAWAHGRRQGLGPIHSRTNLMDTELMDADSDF
T2 sequence (Q99835 28-787 W535L): as the sequence (Q99835 28-787) above, with W508L counted along it
T3 sequence (P56726 33-793 W539L): as the sequence (P56726 33-793 D477H) above, with H445D, W507L counted along it
T5 sequence (Q99835 28-787 D473H): as the sequence (Q99835 28-787) above, with D446H counted along it

| IC50 [1] | Mouse WT % Inh [1] | IC50 [2] | Human W535L % Inh [2] | IC50 [3] | Mouse W535L % Inh [3] | IC50 [4] | Mouse D473H % Inh [4] | IC50 [5] | Human D473H % Inh [5] | IC50 [6] | Human WT % Inh [6] | SMILES |
| --- | --- | --- | --- | --- | --- | --- | --- | --- | --- | --- | --- | --- |
| 10 nM | 96.6% | 2.51 nM | 75.4% | 15.8 nM | 42.2% | 50.1 nM | 96.7% | 251 nM | 88.3% | 2 nM | 83.4% | O=C(Nc1ccc(-c2nc(C3CCCC3)n[nH]2)cc1)c1cccc(CN2CCS(=O)(=O)CC2)c1 [Example 3-5, N-[4-(3-Cyclopentyl-1H-1,2,4-triazol-5-yl)phenyl]-3-[(1,1-dioxo-1,4-thiazinan-4-yl)methyl]benzamide] |
| 0.2 nM | 97.1% | 12.6 nM | 95.6% | 10 nM | 71.9% | 2 nM | 97.4% | 25.1 nM | 103.2% | 0.316 nM | 93.6% | Cc1oc(-c2ccc(NC(=O)c3ccc(F)c(CN4CCS(=O)(=O)CC4)c3)cc2)nc1C1CC1 [Example 4-3, N-[4-(4-Cyclopropyl-5-methyl-1,3-oxazol-2-yl)phenyl]-3-[(1,1-dioxo-1,4-thiazinan-4-yl)methyl]-4-fluorobenzamide] |
| 2 nM | 97.0% | 15.8 nM | 89.9% | 3.98 nM | 49.2% | 5.01 nM | 97.6% | 100 nM | 111.1% | 1.26 nM | 98.6% | Cc1c(-c2ccc(NC(=O)c3ccc(Cl)c(CN4CCS(=O)(=O)CC4)c3)cc2)n[nH]c1C1CC1 [Example 4-22, 4-chloro-N-[4-(5-cyclopropyl-4-methyl-1H-pyrazol-3-yl)phenyl]-3-[(1,1-dioxo-1,4-thiazinan-4-yl)methyl]benzamide] |
| 3.98 nM | 98.8% | 25.1 nM | 98.5% | 39.8 nM | 72.5% | 50.1 nM | 98.5% | 25.1 nM | 104% | 6.31 nM | 94% | O=C(Nc1ccc(-c2nc(Cc3ccc(Br)cc3)n[nH]2)cc1)c1cccc(CN2CCS(=O)(=O)CC2)c1 [Example 3-24, N-[4-[3-[(4-bromophenyl)methy]-1H-1,2,4-triazol-5-yl]phenyl]-3-[(1,1-dioxo-1,4-thiazinan-4-yl)methyl]benzamide] |
